ChEMBL document CHEMBL4507277

Experiments:
[1] = target: Activated CDC42 kinase 1 (Homo sapiens) (UniProt Q07912); conditions: Compound concentration 1000.0 nM
[2] = target: Serine/threonine-protein kinase 35 (Homo sapiens) (UniProt Q8TDR2); conditions: Compound concentration 1000.0 nM
[3] = target: T1, D(4) dopamine receptor (Homo sapiens) (UniProt P21917); conditions: Compound concentration 10.0 uM
T1 sequence (whole entry): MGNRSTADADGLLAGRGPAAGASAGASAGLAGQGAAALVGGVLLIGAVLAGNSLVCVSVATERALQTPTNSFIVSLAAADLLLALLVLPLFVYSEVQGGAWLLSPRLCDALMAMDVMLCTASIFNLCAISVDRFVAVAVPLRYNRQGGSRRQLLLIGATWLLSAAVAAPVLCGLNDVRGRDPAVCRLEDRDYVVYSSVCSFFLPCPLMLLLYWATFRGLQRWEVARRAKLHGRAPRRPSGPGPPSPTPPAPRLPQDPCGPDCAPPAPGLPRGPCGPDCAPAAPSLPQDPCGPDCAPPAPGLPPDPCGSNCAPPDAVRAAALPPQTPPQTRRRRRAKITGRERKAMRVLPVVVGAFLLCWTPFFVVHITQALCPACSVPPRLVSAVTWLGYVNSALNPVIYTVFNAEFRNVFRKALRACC

[4] = target: TGF-beta receptor type-2 (Homo sapiens) (UniProt P37173); conditions: Compound concentration 1000.0 nM
[5] = target: Interferon-induced, double-stranded RNA-activated protein kinase (Homo sapiens) (UniProt P19525); conditions: Compound concentration 1000.0 nM
[6] = target: Casein kinase I isoform gamma-2 (Homo sapiens) (UniProt P78368); conditions: Compound concentration 1000.0 nM
Casein kinase I isoform gamma-2 (Homo sapiens), sequence (P78368 whole entry, looked up, canonical isoform): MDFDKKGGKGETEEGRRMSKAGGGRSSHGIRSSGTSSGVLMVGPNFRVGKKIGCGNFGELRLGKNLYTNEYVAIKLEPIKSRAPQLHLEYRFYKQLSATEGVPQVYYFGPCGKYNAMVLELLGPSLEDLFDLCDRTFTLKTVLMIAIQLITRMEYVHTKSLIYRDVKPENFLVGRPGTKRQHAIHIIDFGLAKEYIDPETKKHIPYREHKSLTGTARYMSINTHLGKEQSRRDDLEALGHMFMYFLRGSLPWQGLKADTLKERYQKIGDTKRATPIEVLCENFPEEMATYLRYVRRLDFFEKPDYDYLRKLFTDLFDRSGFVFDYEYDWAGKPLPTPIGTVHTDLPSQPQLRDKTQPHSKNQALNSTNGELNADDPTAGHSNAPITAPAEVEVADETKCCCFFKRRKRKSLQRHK

[7] = target: Serine/threonine-protein kinase 25 (Homo sapiens) (UniProt O00506); conditions: Compound concentration 1000.0 nM
[8] = target: Mast/stem cell growth factor receptor Kit (Homo sapiens) (UniProt P10721); conditions: Compound concentration 1000.0 nM
[9] = target: Serine/threonine-protein kinase Chk1 (Homo sapiens) (UniProt O14757); conditions: Compound concentration 1000.0 nM
[10] = target: Mitogen-activated protein kinase kinase kinase 9 (Homo sapiens) (UniProt P80192); conditions: Compound concentration 1000.0 nM
[11] = target: Serine/threonine-protein kinase pim-3 (Homo sapiens) (UniProt Q86V86); conditions: Compound concentration 1000.0 nM
[12] = target: 5'-AMP-activated protein kinase catalytic subunit alpha-1 (Homo sapiens) (UniProt Q13131); conditions: Compound concentration 1000.0 nM
[13] = target: Homeodomain-interacting protein kinase 1 (Homo sapiens) (UniProt Q86Z02); conditions: Compound concentration 1000.0 nM
[14] = target: Mitogen-activated protein kinase 7 (Homo sapiens) (UniProt Q13164); conditions: Compound concentration 1000.0 nM
[15] = target: Serine/threonine-protein kinase Nek1 (Homo sapiens) (UniProt Q96PY6); conditions: Compound concentration 1000.0 nM
[16] = target: Phosphorylase b kinase regulatory subunit alpha, liver isoform (Homo sapiens) (UniProt P46019); conditions: Compound concentration 1000.0 nM
[17] = target: Serine/threonine-protein kinase PAK 2 (Homo sapiens) (UniProt Q13177); conditions: Compound concentration 1000.0 nM
[18] = target: Phosphatidylinositol 4,5-bisphosphate 3-kinase catalytic subunit alpha isoform (Homo sapiens) (UniProt P42336); conditions: Compound concentration 1000.0 nM
[19] = target: Cyclin-dependent kinase-like 1 (Homo sapiens) (UniProt Q00532); conditions: Compound concentration 1000.0 nM
[20] = target: Cyclin-dependent kinase 7 (Homo sapiens) (UniProt P50613); conditions: Compound concentration 1000.0 nM
[21] = target: Mitogen-activated protein kinase kinase kinase kinase 1 (Homo sapiens) (UniProt Q92918); conditions: Compound concentration 1000.0 nM
Mitogen-activated protein kinase kinase kinase kinase 1 (Homo sapiens), sequence (Q92918 whole entry, looked up): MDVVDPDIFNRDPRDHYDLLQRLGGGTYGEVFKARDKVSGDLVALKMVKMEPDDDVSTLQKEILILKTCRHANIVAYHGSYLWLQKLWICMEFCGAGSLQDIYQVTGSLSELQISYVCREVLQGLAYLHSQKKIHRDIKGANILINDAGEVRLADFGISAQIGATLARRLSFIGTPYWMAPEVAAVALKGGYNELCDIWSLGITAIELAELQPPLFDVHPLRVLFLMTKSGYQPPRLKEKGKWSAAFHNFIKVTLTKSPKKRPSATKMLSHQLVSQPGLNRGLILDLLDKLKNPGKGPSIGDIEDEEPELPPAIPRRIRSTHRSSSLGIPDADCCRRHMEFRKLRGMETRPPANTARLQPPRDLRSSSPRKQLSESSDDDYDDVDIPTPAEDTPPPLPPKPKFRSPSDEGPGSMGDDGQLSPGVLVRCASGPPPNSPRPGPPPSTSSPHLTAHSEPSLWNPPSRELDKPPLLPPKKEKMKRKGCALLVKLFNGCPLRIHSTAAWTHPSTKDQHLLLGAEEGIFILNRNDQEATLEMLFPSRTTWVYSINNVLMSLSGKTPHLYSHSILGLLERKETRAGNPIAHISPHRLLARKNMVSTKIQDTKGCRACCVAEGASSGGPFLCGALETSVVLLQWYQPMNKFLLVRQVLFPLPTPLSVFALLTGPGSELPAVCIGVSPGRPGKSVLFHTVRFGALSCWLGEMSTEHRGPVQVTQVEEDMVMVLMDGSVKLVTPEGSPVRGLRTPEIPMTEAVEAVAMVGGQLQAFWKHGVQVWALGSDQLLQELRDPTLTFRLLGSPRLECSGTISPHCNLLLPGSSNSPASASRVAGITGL

[22] = target: Serine/threonine-protein kinase PLK4 (Homo sapiens) (UniProt O00444); conditions: Compound concentration 1000.0 nM
[23] = target: Tyrosine-protein kinase FRK (Homo sapiens) (UniProt P42685); conditions: Compound concentration 1000.0 nM
[24] = target: Muscarinic acetylcholine receptor M4 (Homo sapiens) (UniProt P08173); conditions: Compound concentration 10.0 uM
[25] = target: Citron Rho-interacting kinase (Homo sapiens) (UniProt O14578); conditions: Compound concentration 1000.0 nM
[26] = target: Tyrosine-protein kinase JAK1 (Homo sapiens) (UniProt P23458); conditions: Compound concentration 1000.0 nM
[27] = target: TRAF2 and NCK-interacting protein kinase (Homo sapiens) (UniProt Q9UKE5); conditions: Compound concentration 1000.0 nM
[28] = target: Serine/threonine-protein kinase PAK 3 (Homo sapiens) (UniProt O75914); conditions: Compound concentration 1000.0 nM
[29] = target: Serine/threonine-protein kinase WNK1 (Homo sapiens) (UniProt Q9H4A3); conditions: Compound concentration 1000.0 nM
Serine/threonine-protein kinase WNK1 (Homo sapiens), sequence (Q9H4A3 whole entry, looked up): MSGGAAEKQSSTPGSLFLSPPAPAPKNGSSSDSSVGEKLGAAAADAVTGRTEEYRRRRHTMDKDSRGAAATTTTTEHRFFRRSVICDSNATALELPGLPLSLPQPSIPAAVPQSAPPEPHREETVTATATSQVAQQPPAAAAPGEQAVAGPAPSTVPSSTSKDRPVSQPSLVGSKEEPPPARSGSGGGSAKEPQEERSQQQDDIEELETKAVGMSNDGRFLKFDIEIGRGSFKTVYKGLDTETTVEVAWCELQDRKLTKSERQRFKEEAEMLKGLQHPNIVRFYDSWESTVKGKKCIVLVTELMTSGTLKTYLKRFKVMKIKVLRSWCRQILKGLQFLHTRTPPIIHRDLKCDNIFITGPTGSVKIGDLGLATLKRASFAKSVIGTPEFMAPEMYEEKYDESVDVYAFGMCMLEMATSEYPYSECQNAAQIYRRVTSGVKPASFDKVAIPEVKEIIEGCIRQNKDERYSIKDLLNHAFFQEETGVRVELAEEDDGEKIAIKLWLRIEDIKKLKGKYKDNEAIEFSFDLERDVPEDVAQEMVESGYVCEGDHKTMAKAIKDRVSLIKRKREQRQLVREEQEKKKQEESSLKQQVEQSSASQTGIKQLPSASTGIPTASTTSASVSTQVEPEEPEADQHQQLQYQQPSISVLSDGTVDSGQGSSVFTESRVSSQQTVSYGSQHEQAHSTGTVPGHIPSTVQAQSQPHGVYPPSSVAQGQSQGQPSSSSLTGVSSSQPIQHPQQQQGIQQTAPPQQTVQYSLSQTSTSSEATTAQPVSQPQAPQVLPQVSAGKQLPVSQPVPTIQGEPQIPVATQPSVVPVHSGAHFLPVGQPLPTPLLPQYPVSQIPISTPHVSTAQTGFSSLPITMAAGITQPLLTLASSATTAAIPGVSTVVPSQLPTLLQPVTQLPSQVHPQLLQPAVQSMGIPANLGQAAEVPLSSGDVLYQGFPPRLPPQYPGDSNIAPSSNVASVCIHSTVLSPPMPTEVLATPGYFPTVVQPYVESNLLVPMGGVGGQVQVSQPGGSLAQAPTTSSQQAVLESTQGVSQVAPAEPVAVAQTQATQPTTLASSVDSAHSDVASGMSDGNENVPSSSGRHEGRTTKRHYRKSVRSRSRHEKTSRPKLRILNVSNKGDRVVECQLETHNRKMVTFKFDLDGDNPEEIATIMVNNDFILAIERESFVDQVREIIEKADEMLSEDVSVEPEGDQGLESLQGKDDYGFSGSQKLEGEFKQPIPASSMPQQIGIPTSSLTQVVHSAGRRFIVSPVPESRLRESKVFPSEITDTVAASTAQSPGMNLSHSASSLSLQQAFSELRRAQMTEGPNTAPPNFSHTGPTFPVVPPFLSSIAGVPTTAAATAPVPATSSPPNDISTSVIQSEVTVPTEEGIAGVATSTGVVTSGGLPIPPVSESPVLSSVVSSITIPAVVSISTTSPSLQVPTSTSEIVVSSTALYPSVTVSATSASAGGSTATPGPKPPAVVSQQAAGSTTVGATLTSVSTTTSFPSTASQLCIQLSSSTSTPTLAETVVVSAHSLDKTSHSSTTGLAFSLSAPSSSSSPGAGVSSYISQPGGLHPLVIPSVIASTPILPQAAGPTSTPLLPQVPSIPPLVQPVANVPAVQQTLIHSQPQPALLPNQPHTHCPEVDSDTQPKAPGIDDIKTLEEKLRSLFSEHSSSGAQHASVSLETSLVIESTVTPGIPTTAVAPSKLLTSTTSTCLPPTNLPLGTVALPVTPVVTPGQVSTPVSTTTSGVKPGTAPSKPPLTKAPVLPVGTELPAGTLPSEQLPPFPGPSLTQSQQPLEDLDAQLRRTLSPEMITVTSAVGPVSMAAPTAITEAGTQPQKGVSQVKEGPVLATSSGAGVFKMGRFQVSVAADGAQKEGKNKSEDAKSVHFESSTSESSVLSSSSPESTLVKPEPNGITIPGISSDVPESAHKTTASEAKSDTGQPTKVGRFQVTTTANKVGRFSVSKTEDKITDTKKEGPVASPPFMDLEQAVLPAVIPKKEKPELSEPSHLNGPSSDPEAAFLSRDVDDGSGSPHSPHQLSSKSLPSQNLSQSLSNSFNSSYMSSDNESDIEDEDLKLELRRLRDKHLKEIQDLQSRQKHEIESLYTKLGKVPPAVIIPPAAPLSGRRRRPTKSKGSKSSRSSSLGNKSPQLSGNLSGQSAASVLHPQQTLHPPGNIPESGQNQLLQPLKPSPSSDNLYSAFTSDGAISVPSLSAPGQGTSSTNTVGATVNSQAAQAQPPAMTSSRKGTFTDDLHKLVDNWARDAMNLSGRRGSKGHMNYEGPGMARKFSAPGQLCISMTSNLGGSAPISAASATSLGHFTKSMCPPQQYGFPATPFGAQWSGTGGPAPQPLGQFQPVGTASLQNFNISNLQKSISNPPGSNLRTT

[30] = target: Cyclin-dependent kinase 3 (Homo sapiens) (UniProt Q00526); conditions: Compound concentration 1000.0 nM
[31] = target: Tyrosine-protein kinase Mer (Homo sapiens) (UniProt Q12866); conditions: Compound concentration 1000.0 nM
[32] = target: Calcium/calmodulin-dependent protein kinase type IV (Homo sapiens) (UniProt Q16566); conditions: Compound concentration 1000.0 nM
[33] = target: NUAK family SNF1-like kinase 1 (Homo sapiens) (UniProt O60285); conditions: Compound concentration 1000.0 nM
[34] = target: Serine/threonine-protein kinase ICK (Homo sapiens) (UniProt Q9UPZ9); conditions: Compound concentration 1000.0 nM
Serine/threonine-protein kinase ICK (Homo sapiens), sequence (Q9UPZ9 whole entry): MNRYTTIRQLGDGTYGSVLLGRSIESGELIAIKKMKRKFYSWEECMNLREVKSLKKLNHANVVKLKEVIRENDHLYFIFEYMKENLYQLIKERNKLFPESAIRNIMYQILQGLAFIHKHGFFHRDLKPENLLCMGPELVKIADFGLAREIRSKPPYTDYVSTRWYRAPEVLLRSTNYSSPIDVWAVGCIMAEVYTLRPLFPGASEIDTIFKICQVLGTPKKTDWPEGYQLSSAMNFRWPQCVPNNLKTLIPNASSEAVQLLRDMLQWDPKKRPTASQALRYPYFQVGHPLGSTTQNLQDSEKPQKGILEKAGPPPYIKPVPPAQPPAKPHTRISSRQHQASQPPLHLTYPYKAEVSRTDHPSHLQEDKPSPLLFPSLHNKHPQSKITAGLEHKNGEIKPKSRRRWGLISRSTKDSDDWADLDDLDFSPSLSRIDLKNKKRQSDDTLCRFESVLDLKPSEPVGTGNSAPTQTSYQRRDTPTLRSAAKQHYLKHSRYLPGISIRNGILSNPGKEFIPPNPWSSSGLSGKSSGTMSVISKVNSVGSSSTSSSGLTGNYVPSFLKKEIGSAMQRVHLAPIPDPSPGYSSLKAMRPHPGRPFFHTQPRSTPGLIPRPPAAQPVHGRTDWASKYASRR

[35] = test system: Mast/stem cell growth factor receptor Kit (Homo sapiens), P10721 [V559D]; conditions: Compound concentration 1000.0 nM
[36] = target: Phosphatidylinositol 4-phosphate 5-kinase type-1 gamma (Homo sapiens) (UniProt O60331); conditions: Compound concentration 1000.0 nM
Phosphatidylinositol 4-phosphate 5-kinase type-1 gamma (Homo sapiens), sequence (O60331 whole entry): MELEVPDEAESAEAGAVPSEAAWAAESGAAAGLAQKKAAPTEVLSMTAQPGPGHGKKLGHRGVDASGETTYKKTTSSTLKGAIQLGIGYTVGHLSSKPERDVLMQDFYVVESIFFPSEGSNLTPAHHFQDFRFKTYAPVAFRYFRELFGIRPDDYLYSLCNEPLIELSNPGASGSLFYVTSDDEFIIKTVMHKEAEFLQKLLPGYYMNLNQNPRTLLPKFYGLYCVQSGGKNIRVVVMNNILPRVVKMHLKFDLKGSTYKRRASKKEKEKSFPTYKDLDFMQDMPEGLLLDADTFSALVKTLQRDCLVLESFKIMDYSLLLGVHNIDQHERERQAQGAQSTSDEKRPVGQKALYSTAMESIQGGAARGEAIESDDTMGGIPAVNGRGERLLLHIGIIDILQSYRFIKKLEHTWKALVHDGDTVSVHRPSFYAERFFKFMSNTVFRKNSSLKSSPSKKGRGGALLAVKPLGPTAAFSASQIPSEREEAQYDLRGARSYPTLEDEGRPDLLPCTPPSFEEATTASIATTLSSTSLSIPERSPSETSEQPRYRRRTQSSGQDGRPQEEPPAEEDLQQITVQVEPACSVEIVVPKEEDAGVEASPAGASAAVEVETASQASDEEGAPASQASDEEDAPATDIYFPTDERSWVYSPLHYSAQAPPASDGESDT

[37] = target: Serine/threonine-protein kinase pim-2 (Homo sapiens) (UniProt Q9P1W9); conditions: Compound concentration 1000.0 nM
[38] = target: Cyclin-dependent kinase-like 2 (Homo sapiens) (UniProt Q92772); conditions: Compound concentration 1000.0 nM
[39] = target: Rhodopsin kinase GRK7 (Homo sapiens) (UniProt Q8WTQ7); conditions: Compound concentration 1000.0 nM

SMILES	residual activity [1] [%]	residual activity [2] [%]	inhibition [3] [%]	residual activity [4] [%]	residual activity [5] [%]	residual activity [6] [%]	residual activity [7] [%]	residual activity [8] [%]	residual activity [9] [%]	residual activity [10] [%]	residual activity [11] [%]	residual activity [12] [%]	residual activity [13] [%]	residual activity [14] [%]	residual activity [15] [%]	residual activity [16] [%]	residual activity [17] [%]	residual activity [18] [%]	residual activity [19] [%]	residual activity [20] [%]	also measured
CCS(=O)(=O)c1cc2cc(C[C@](O)(CC(C)(C)c3ccc(F)cc3C(N)=O)C(F)(F)F)[nH]c2cn1	100	100	-7.41	100	52	93	86	89	97	98	100	100	94	97	45	100	86	81	81	95	residual activity [21]: 100%; residual activity [22]: 80%; residual activity [23]: 80%; inhibition [24]: 13.1%; residual activity [25]: 100%; residual activity [26]: 95%; residual activity [27]: 100%; residual activity [28]: 100%; residual activity [29]: 97%; residual activity [30]: 100%; residual activity [31]: 100%; residual activity [32]: 100%; residual activity [33]: 100%; residual activity [34]: 100%; residual activity [35]: 100%; residual activity [36]: 100%; residual activity [37]: 100%; residual activity [38]: 93%; residual activity [39]: 100%
CCS(=O)(=O)c1cc2cc(C[C@@](O)(CC(C)(C)c3ccc(F)cc3C(N)=O)C(F)(F)F)[nH]c2cn1	100	100	5.32	100	61	95	87	100	100	96	100	100	90	81	53	100	94	100	78	99	residual activity [21]: 100%; residual activity [22]: 87%; residual activity [23]: 100%; inhibition [24]: 18.2%; residual activity [25]: 96%; residual activity [26]: 90%; residual activity [27]: 97%; residual activity [28]: 100%; residual activity [29]: 90%; residual activity [30]: 73%; residual activity [31]: 100%; residual activity [32]: 100%; residual activity [33]: 77%; residual activity [34]: 97%; residual activity [35]: 100%; residual activity [36]: 98%; residual activity [37]: 99%; residual activity [38]: 90%; residual activity [39]: 95%
